Results from patent US6605639B1, “Ligands of nuclear receptor” (Nuclear Receptor Research, Ltd., priority 1998, dated 2003).
Entries after “also recorded” stand apart in the source; their conditions may differ.

Assays:
[1] = test system: white rabbits; test: Inhibition of arteriosclerosis in white rabbits fed high fat feed; conditions: 14 weeks
Experimental: Thus, a high fat feed was prepared by adding 10% of hardened coconut oil, 2% of cholesterol, 0.5% of bovine bile powder and 0.04% or 0.01% of ascochlorin to a powdery marketed standard white rabbit feed and molded the mixture into pellets. Separately, another high fat feed for the control group was prepared without using ascochlorin.
Twenty-four white rabbits weighing about 2 kg were divided into 4 groups at random. One of these groups was regarded as the control group, while the remaining 3 groups were respectively regarded as the clofibrate group, the ascochlorin 0.01% group and the ascochlorin 0.04% group at random. Then the experiment was carried out for 14 weeks.

[2] = test system: patients suffered from hypercholesterolemia; test: Phase I clinical test; assay type: in vivo, human; conditions: for Serum total cholesterol: Mean ± SE
Experimental: A phase I clinical test of Compound-6, one of the compounds of the present invention, was carried out with 17 female and male patients aged 40 to 82 suffered from hypercholesterolemia. The experiment was continued for 12 weeks and Compound-6 was administered in the first 8 weeks. […] From the 8th week to the 12th week (the placebo-administration period) a placebo was given without notifying the patients. The drug in a daily dose was divided into 3 portions and taken after meals. Each patient visited the hospital once a week and was subject to investigation and blood collection for analyzing serum.

[3] = After 10 weeks, placebo period after 8 weeks of drug (carry-over)
[4] = After 12 weeks, placebo period after 8 weeks of drug (carry-over)

3-[5-[l(R),2(S),6(S)-trimethyl-3-oxocylohexyl]-3-methyl-2,4-pentadienyl]-2,4-dihydroxy-5-chloro-6-methylbenzaldehyde [Compound-1]
lesions of obstruction in the coronary artery ([1]; 0.01% and 0.04% in high fat feed): significantly alleviated
survival until the completion of the experiment ([1]; 0.01% and 0.04% in high fat feed, 6 animals per group): all individuals survived
increase in the serum total cholesterol level ([1]; high fat feed): would not suppress increase

COc1c(Cl)c(C)c(C=O)c(O)c1C/C=C(C)/C=C/[C@@]1(C)[C@H](C)CCC(=O)[C@@H]1C [Compound-6, 4-O-methylASC]
patients with vertigo ([2]; 17 patients): one
Serum total cholesterol, Decrease ([2]; After 1 week, dose 0.5 (mg.kg)): −20%
Serum total cholesterol ([2]; After 1 week, dose 0.5 (mg.kg), n = 17): 273 ± 62.7 mg/dL
Serum total cholesterol, Decrease ([2]; After 2 weeks, dose 1 (mg.kg)): −22%
Serum total cholesterol ([2]; After 2 weeks, dose 1 (mg.kg), n = 17): 266 ± 66.7 mg/dL
Serum total cholesterol, Decrease ([2]; After 3 weeks, dose 2 (mg.kg)): −21%
Serum total cholesterol ([2]; After 3 weeks, dose 2 (mg.kg), n = 17): 269 ± 66.0 mg/dL
Serum total cholesterol, Decrease ([2]; After 4 weeks, dose 4 (mg.kg)): −28%
Serum total cholesterol ([2]; After 4 weeks, dose 4 (mg.kg), n = 17): 254 ± 65.7 mg/dL
Serum total cholesterol, Decrease ([2]; After 6 weeks, dose 8 (mg.kg)): −36%
Serum total cholesterol ([2]; After 6 weeks, dose 8 (mg.kg), n = 17): 217 ± 58.8 mg/dL
Serum total cholesterol, Decrease ([2]; After 8 weeks, dose 16 (mg.kg)): −33%
Serum total cholesterol ([2]; After 8 weeks, dose 16 (mg.kg), n = 17): 229 ± 61.5 mg/dL
Serum total cholesterol, Decrease [2, 3]: −25%
Serum total cholesterol [2, 3]: 256 ± 57.6 mg/dL
Serum total cholesterol, Decrease [2, 4]: −22%
Serum total cholesterol [2, 4]: 264 ± 57.7 mg/dL
side effects, subjective or objective ([2]; daily dose 1 mg/kg to 16 mg/kg, oral): no serious side effect; also recorded: no subjective or objective side effect
blood glucose levels of 5 diabetics included in the patients, lowered to ([2]; human, in vivo): 100 mg/dL
systolic and diastolic blood pressure of patients with hypertension or borderline hypertension ([2]; human, in vivo): lowered
